In patent US10391181B2, “Cyclodextrin and antibody-drug conjugate formulations” (priority 2013, dated 2019):

Experiment: Clearance of PBD drug-linker from conjugation reaction mixture by tangential flow filtration (constant volume diafiltration)
Details: Example 8; without cyclodextrin; Tris, NaCl and 50% propylene glycol; clearance stalling after four diavolumes
Procedure: The diafiltration (DF) process used an 88 cm^2 Ultracel Pellicon 3 cassette from Millipore with a 30 kD molecular weight pore size. The batch volume for the DF was 250 mL, the feed flow rate was 40 ml/min throughout the process, and the retentate valve was adjusted to maintain a trans-membrane pressure of ˜20 psi. The diafiltration buffer addition rate to maintain constant batch volume started at 9 mL/min, but was maintained at 13-14 ml/min through most of the process. Samples were removed after the completion of each diavolume. The concentration of hpb-CD was measured in each sample using an RP HPLC assay with evaporative light scattering detection.
This mixture was brought to 10 w/v % hpb-CD by addition of 25% volume of a 50 w/v % solution of hpb-CD in 50 mM Tris/5 mM EDTA, pH 8.0. […] The concentration of quenched drug-linker was determined in each sample. […] C and C0 are concentrations of the analyte measured, N is the number of diavolumes, and S is the sieving factor, defined as the analyte concentration on the permeate side of the membrane divided by the analyte concentration on the retentate side of the membrane. […]
The TFF process was performed on quenched conjugation reaction mixture using a 30 kD MW cutoff 0.1 m^2 Ultracel Pellicon 3 membrane (Millipore). […] The concentration of quenched PBD drug-linker was determined in each sample. […]

SMILES: COc1ccc(C2=CN3C(=O)c4cc(OC)c(OCCCOc5cc6c(cc5OC)C(=O)N5C=C(c7ccc(NC(=O)[C@H](C)NC(=O)[C@@H](NC(=O)CCCCCN8C(=O)CC(SCC(NC(C)=O)C(=O)O)C8=O)C(C)C)cc7)C[C@H]5C=N6)cc4N=C[C@@H]3C2)cc1 (stereo partly shown) [compound 4]
- benzodiazepine drug-related impurity remaining in the mixture: 1.1 µM
